According to the NIST ThermoML archive (doi:10.1016/j.jct.2010.02.014):

Assay: cn = amount concentration of the nth substance listed, in mol/dm3
Details: 298.15 K, 101.3 kPa, Liquid, Taylor dispersion method

- binary diffusion coefficient (c1 = 0): 8.26e-10 m2/s
- binary diffusion coefficient (c1 = 0.005): 8.25e-10 m2/s
- binary diffusion coefficient (c1 = 0.01): 8.23e-10 m2/s
- binary diffusion coefficient (c1 = 0.02): 8.21e-10 m2/s
SMILES: NNC(=O)c1ccncc1 [isonicotinic acid hydrazide] + O
